This is an account of results in patent US20190330226A1, “POSITIVE ALLOSTERIC MODULATORS OF THE MUSCARINIC ACETYLCHOLINE RECEPTOR M1” (Vanderbilt University, priority 2018, published 2019).

This experiment addresses T1, human mAChR M1 (Homo sapiens, UniProt P11229).
T1 construct: host or cells: CHO-K1 (ATCC), stably transfected using Lipofectamine 2000
T1 sequence (P11229 1-460): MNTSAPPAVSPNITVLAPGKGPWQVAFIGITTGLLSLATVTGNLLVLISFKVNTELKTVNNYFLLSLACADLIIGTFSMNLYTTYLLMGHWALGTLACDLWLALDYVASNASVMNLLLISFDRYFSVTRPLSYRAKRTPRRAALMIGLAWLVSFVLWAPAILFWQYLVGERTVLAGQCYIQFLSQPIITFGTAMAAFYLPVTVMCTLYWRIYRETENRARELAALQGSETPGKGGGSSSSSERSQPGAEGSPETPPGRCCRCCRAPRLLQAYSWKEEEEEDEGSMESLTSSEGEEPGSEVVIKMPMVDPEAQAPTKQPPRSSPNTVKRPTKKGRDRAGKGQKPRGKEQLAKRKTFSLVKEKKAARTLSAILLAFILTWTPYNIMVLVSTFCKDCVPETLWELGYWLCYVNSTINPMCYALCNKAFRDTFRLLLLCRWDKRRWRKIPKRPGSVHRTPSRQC
The experiment in a line: mAChR M1 cell-based functional assay (calcium mobilization, Fluo-4, FDSS). The settings on record: CHO-K1 cells stably expressing hM1, calcium flux; for Emax: PAM mode with EC20 acetylcholine; for EC50: concentration-dependent increase in the EC20 acetylcholine response. The essentials:
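CHO-K1 cells stably expressing hM1 loaded with Fluo-4 AM. Compound added at 4 s, acetylcholine EC20 at 144 s and EC80 at 230 s, with FDSS fluorescence ratio read at 1 Hz. Agonist, PAM (EC20 potentiation) and antagonist (EC80 decrease) activity; EC50 and Emax from four-parameter logistic fit.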

As for `Cn1cc2c(-c3cc(F)c(CN4Cc5ccn(CCCO)c5C4=O)c(F)c3)cccc2n1` [Compound 54, 5-(2,6-difluoro-4-(2-methyl-2H-indazol-4-yl)benzyl)-1-(3-hydroxypropyl)-4,5-dihydropyrrolo[3,4-b]pyrrol-6(1H)-one], the Emax was 69% and the EC50 was 5580 nM.

Consider `Cn1cc(-c2ccc(CN3Cc4sccc4C3=O)c(F)c2)cn1` [Compound 41, 5-(2-fluoro-4-(1-methyl-1H-pyrazol-4-yl)benzyl)-5,6-dihydro-4H-thieno[2,3-c]pyrrol-4-one], for which the Emax was determined as 69%.

For the molecule `CCCn1ccc2c1C(=O)N(Cc1c(F)cc(-c3cccc4nn(C)cc34)cc1F)C2` [Compound 10, 5-(2,6-difluoro-4-(2-methyl-2H-indazol-4-yl)benzyl)-1-propyl-4,5-dihydropyrrolo[3,4-b]pyrrol-6(1H)-one], the Emax came to 59%.

Take `Cn1cc2cc(-c3cc(F)c(CN4Cc5scc(Br)c5C4=O)c(F)c3)ccc2n1` [Compound 33, 3-bromo-5-(2,6-difluoro-4-(2-methyl-2H-indazol-5-yl)benzyl)-5,6-dihydro-4H-thieno[2,3-c]pyrrol-4-one]: the Emax was 56% and the EC50 worked out at 2230 nM.

`Cc1ccc(-c2cc(F)c(CN3Cc4ncsc4C3=O)c(F)c2)cn1` [Compound 23, 5-(2,6-difluoro-4-(6-methylpyridin-3-yl)benzyl)-4,5-dihydro-6H-pyrrolo[3,4-d]thiazol-6-one]: the Emax amounted to 27%.

With `Cn1cc2c(-c3cc(F)c(CN4Cc5sccc5C4=O)c(F)c3)cccc2n1` [Compound 1, 5-(2,6-difluoro-4-(2-methyl-2H-indazol-4-yl)benzyl)-5,6-dihydro-4H-thieno[2,3-c]pyrrol-4-one], the Emax was determined as 84% and the concentration for a half-maximal effect (EC50) came to 1590 nM.

Turning to `Cc1n[nH]c2ccc(-c3cc(F)c(CN4Cc5sccc5C4=O)c(F)c3)cc12` [Compound 28, 5-(2,6-difluoro-4-(3-methyl-1H-indazol-5-yl)benzyl)-5,6-dihydro-4H-thieno[2,3-c]pyrrol-4-one], the Emax was determined as 57%.

On to `Cn1cc2c(-c3cc(F)c(CN4Cc5nc[nH]c5C4=O)c(F)c3)cccc2n1` [Compound 3, 5-(2,6-difluoro-4-(2-methyl-2H-indazol-4-yl)benzyl)-5,6-dihydropyrrolo[3,4-d]imidazol-4(3H)-one], for which the Emax worked out at 78%.

Take `Cn1cc2c(-c3cc(F)c(CN4Cc5ccn(CCN6CCCC6)c5C4=O)c(F)c3)cccc2n1` [Compound 11, 5-(2,6-difluoro-4-(2-methyl-2H-indazol-4-yl)benzyl)-1-(2-(pyrrolidin-1-yl)ethyl)-4,5-dihydropyrrolo[3,4-b]pyrrol-6(1H)-one]: the Emax was determined as 57% and the EC50 was 2920 nM.
